From PMC8954350, “Non-Canonical Cannabinoid Receptors with Distinct Binding and Signaling Properties in Prostate and Other Cancer Cell Types Mediate Cell Death” (International Journal of Molecular Sciences, 2022)
“And” between values parts separate entries of the source, which are not always exact repeats. Equal entries are not always repeated. “Also recorded” adds a separate entry of the source. Where two headings read alike, the source gives them in different places. Marks after values point to notes of the source that are not given here.

What was measured:
DU-145 cells [1] = assay: ATP-dependent cell viability, DU-145 cells; type: cell-based, human; settings: 24 h
Description: Adenosine 5′-triphosphate (ATP) levels were quantified as a measure of DU-145 cell viability in response to cannabinoid treatement using an ATP-luciferase-based bioluminescence assay kit (CellTiter-Glo®, Sigma, MO, USA) and BioTek microplate reader (Winooski, VT, USA). DU-145 cells were seeded at a density of 8 × 10^3 cells/well in a 96-well plate and incubated for 24 h at 37 °C with 5% CO2. The next day, cells were treated with either vehicle or experimental drugs (10 or 50 μM) and incubated for another 24 h at 37 °C with 5% CO2. ATP levels were assessed following incubation by interpolation from an ATP standard curve according to the manufacturer’s protocol, as described previously.

[2] = target: CBRs expressed in PC-3 membranes; type: binding, human
Description: (§1) The assay was performed as previously detailed. […] All binding reactions were conducted in triplicate, in a final volume of 1 mL, and, following mixing, were incubated for 20 min in a 37 °C water bath to achieve equilibrium. After incubation, reactions were terminated by rapid vacuum filtration and processed for radioactivity, as detailed in Section 4.5.1.
(§2) Curve-fitting and all statistical analyses were performed using GraphPad Prism® v8.0g (GraphPad Software, Inc.; San Diego, CA, USA). […] For CBR screening studies, a one-sample t-test was performed to determine differences from 100% (e.g., to quantify compounds producing displacement), followed by a one-way ANOVA and Tukey’s post hoc tests to compare displacement produced by all drugs. […] To compare specific CBR affinity (Ki) between ligands, non-linear regression analysis was employed to determine experimental IC50 values from competition receptor binding assays, which were then converted to Ki values using the Cheng–Prusoff equation [35]. Ki values were converted to pKi values so that parametric tests could be used and statistically compared by employing a one-way ANOVA followed by Tukey’s post hoc test. For statistical analyses of [^35S]GTPγS, adenylyl cyclase, and chronic experiments, a one-sample t-test was performed to detect differences from 100% (e.g., basal levels), followed by comparison of all means by a one-way ANOVA and Tukey’s post hoc test. For LDH release, ATP-dependent cell viability and JC-1 staining assays, drug effects were first analyzed by a one-sample t-test to determine differences from 0 or 100% (vehicle), followed by a one-way ANOVA and Dunnett’s post hoc test to compare all means. Significance for all statistical tests was defined at a minimal level of p < 0.05.

[3] = target: CBRs expressed in DU-145 membranes; type: binding, human
Description: as §1, §2

[4] = system: CBRs expressed in PC-3 membranes; assay: [^3H]WIN-55,212-2 competitive binding screen, PC-3 membranes; parameters: species or system human
Description: (§3) The assay was conducted as previously detailed. […] All binding reactions were conducted in triplicate, in a final volume of 1 mL, and, following mixing, were incubated for 20 min in a 37 °C water bath to achieve equilibrium. After incubation, reactions were terminated by rapid vacuum filtration through Whatman GF/B glass fiber filters (Brandel; Gaithersburg, MD, USA), followed by three washes of 4 mls of ice-cold filtration buffer (50 mM Tris, pH 7.4, and 0.05% bovine serum albumin). Samples were punched out from filter papers into scintillation vials, to which 4 mls of ScintiverseTM-BDR cocktail scintillation fluid (Fisher Scientific; Hampton, NH, USA) was added. Filters were incubated at room temperature for 24 h in scintillation fluid, vortexed, and radioactivity (measured as DPMs) was quantified via a liquid scintillation spectrophotometer (Tri Carb 2100 TR Liquid Scintillation Analyzer, Packard Instruments, Meriden, CT, USA).
These experiments were conducted to screen well-characterized cannabinoid ligands with high affinity for canonical CB1 and/or CB2Rs for binding to CBRs expressed in prostate cancer cells lines, as detailed in [33]. […] All binding reactions were conducted in triplicate, in a final volume of 1 mL, and, following mixing, were incubated for 20 min in a 37 °C water bath to achieve equilibrium. After incubation, reactions were terminated by rapid vacuum filtration and processed for radioactivity, as detailed in Section 4.5.1.

[5] = system: CBRs expressed in DU-145 cells; assay: Adenylyl cyclase modulation in whole DU-145 cells; type: cell-based, human; settings: 10 μM, with or without pertussis toxin
Description: (§4) These experiments were conducted to examine modulation of adenylyl cyclase activity by cannabinoid ligands in prostate cancer cell lines DU-145 and PC-3, as described earlier. CHO-hCB2, DU-145, or PC-3 cells were seeded into 24 well plates at a density of 8 × 10^6 cells per plate in growth media (DMEM for DU-145 and CHO-hCB2 cells or F12-K for PC-3 cells). Growth media contained FetalPlex (10%) and 1% pennicillin/streptomycin. Cells were cultured overnight in a humidified incubator maintained at 37 °C with 5% CO2. For some experiments, a subset of wells were treated overnight with pertussis toxin (2 μL/mL) to abolish Gi/Go protein-mediated signaling. Following overnight incubation, growth media was replaced with an incubation media containing either DMEM (for DU-145 and CHO-hCB2) or F12-K (for PC-3) with 0.9 g/l NaCl, 2.5 μCi/mL of [^3H]adenine, and 0.5 mM IBMX, and cells were kept in a humidified incubator maintained at 37 °C with 5% CO2 for 4 h. […] Finally, 10 mL of Scintiverse^TM BD Cocktail scintillation fluid (Fisher Scientific; Hampton, NH, USA) was added to eluates and radioactivity (quantified as DPMs) was quantified via a liquid scintillation spectrophotometer (Tri Carb 2100 TR Liquid Scintillation Analyzer, Packard Instruments, Meriden, CT, USA).

DU-145 cells [6] = assay: Mitochondrial membrane potential (JC-1 staining), DU-145 cells; type: cell-based, human; settings: 24 h; for mitochondrial membrane potential (MMP) depolarization: JC-1
[7] = system: CBRs expressed in PC-3 cells; assay: Adenylyl cyclase modulation in whole PC-3 cells; type: cell-based, human; settings: 10 μM, with or without pertussis toxin
Description: as §4

[8] = system: CBRs expressed in DU-145 cells; assay: [^3H]CP-55,940 competitive binding screen, DU-145 membranes; parameters: species or system human; settings: 1 μM ligand, 0.2 nM radioligand
Description: as §3

[9] = system: CBRs expressed in C6-glioma cells; assay: [^3H]CP-55,940 competitive binding screen, C6-glioma membranes; parameters: species or system mouse; settings: 1 μM ligand, 0.2 nM radioligand
Description: as §3

[10] = 1 μM ligand, 1 nM radioligand, PC-3 membranes

SMILES	reduction in ATP-dependent cell viability (ATP levels) (DU-145 cells [1]; 50 μM) [%]	concentration-dependent effect on ATP-dependent viability (DU-145 cells [1]; 10–50 μM)	Ki [2] [nM]	pKi (−log Ki) [2]	Ki [3]	pKi (−log Ki) [3]	displacement of [^3H]WIN-55,212-2 [4]	change in forskolin-stimulated intracellular cAMP levels [5]	displacement of [^3H]WIN-55,212-2 [4, 10]	MMP on co-incubation with GW-405833 (10 μM) (DU-145 cells [6]; 10 μM ligand co-incubated)	mitochondrial membrane potential (MMP) depolarization (DU-145 cells [6]; 10 μM)	change in forskolin-stimulated intracellular cAMP levels [7]	displacement of [^3H]CP-55,940 [8]	displacement of [^3H]CP-55,940 [9]	mitochondrial membrane potential (MMP) depolarization (DU-145 cells [6]; 50 μM)
COc1ccc2c(c1)c(CCN1CCOCC1)c(C)n2C(=O)c1cccc(Cl)c1Cl [GW-405833]	68.8 ± 4.95	only produced ATP-dependent reductions in cell viability at the highest 50 μM concentration	296	6.47 ± 0.17 ^b	~290 nM and 290 nM	6.5 ± 0.12 ^b	greater than 50%								
Cc1c(C(=O)NN2CCCCC2)nn(-c2ccc(Cl)cc2Cl)c1-c1ccc(Cl)cc1 [rimonabant]			54.1		102 nM	7.04 ± 0.15 ^a		neither WIN-55-212-2 nor rimonabant significantly altered intracellular cAMP levels	greater than 50%	MMP was not significantly reduced from vehicle-treated levels	reduced MMP	neither WIN-55-212-2 nor rimonabant significantly altered intracellular cAMP levels			
Cc1c(C(=O)c2cccc3ccccc23)c2cccc3c2n1[C@H](CN1CCOCC1)CO3 [WIN-55,212-2]								neither WIN-55-212-2 nor rimonabant significantly altered intracellular cAMP levels	significantly displaced; also recorded: complete displacement		produced effects only at 50 μM	neither WIN-55-212-2 nor rimonabant significantly altered intracellular cAMP levels	neither the non-selective CBR ligand CP-55,940 nor WIN-55,212-2 produced significant displacement	neither the non-selective CBR ligand CP-55,940 nor WIN-55,212-2 produced significant displacement	produced effects only at 50 μM
